# Measured values as given in article PMC7413254 (Nature Communications, 2020).
# Key:
# non-expressing oocytes [1] = assay: cells; type: cell-based, Xenopus laevis; details: non-expressing oocytes, total [3H]CQ transport, normalised to the oocyte type control
# Outline: (§1)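 Oocytes expressing PfCRT isoforms, or non-expressing controls, were incubated 1.5 h at 27.5 °C in ND96 buffer pH 5.5 (96 mM NaCl, 2 mM KCl, 1 mM MgCl2, 1.8 mM CaCl2, 10 mM MES, 10 mM Tris-base), measuring uptake from acidic medium into cytosol. Oocytes were washed ice-cold, SDS-lysed and counted by scintillation.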
# PfCRT^3D7 [2] = biological target: T1, PfCRT^3D7 (Plasmodium falciparum, UniProt Q8IBZ9); assay: cell-based; type: cell-based; details: PfCRT3D7 oocytes, total [3H]CQ transport, normalised to the oocyte type control
# Outline: as §1
# PfCRT^Ecu1110 [3] = biological target: T2, PfCRT^Ecu1110 (Plasmodium falciparum, UniProt Q9N623, A220S/I356L/K76T/N326D); assay: [3H]CQ uptake into Xenopus oocytes, cis-inhibition by unlabelled solute; type: cell-based; details: for Uptake of [3H]CQ (% PfCRTEcu1110 control), cis-inhibition / PfCRT-mediated [3H]CQ transport, cis-inhibition (% PfCRTEcu1110 control): PfCRTEcu1110 oocytes; for Uptake of [3H]CQ (% PfCRTEcu1110 control), cis-inhibition: total [3H]CQ transport, normalised to the oocyte type control; for PfCRT-mediated [3H]CQ transport, cis-inhibition (% PfCRTEcu1110 control): background [3H]CQ accumulation subtracted, normalised to oocyte type control; for [3H]CQ transport (% PfCRTEcu1110 control), cis-inhibition, PfCRTEcu1110: PfCRT-mediated component (background subtracted), sheet title says normalised to PfCRTDd2 control, mean ± SEM, SEM
# Outline: as §1
# PfCRT^Dd2 [4] = biological target: T3, PfCRT^Dd2 (Plasmodium falciparum, UniProt Q9N623, A220S/I356T/K76T/M74I/N326S/N75E/Q271E/R371I); assay: as above; type: cell-based; details: PfCRTDd2 oocytes, background [3H]CQ accumulation subtracted, normalised to oocyte type control
# Outline: as §1
# PfCRT^Ecu1110 [5] = biological target: T2, PfCRT^Ecu1110; assay: cell-based; type: cell-based; details: for Uptake of [3H]CQ (% PfCRTEcu1110 control), trans-stimulation / PfCRT-mediated [3H]CQ transport, trans-stimulation (% PfCRTEcu1110 control): PfCRTEcu1110 oocytes; for Uptake of [3H]CQ (% PfCRTEcu1110 control), trans-stimulation: total [3H]CQ transport, normalised to the oocyte type control; for PfCRT-mediated [3H]CQ transport, trans-stimulation (% PfCRTEcu1110 control): normalised to oocyte type control; for [3H]CQ transport (% PfCRTDd2 control), trans-stimulation, PfCRTEcu1110: PfCRT-mediated component (background subtracted), sheet title says normalised to PfCRTDd2 control, mean ± SEM, SEM
# Outline: (§2)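 Transport measured in Xenopus oocytes expressing the transporters, 1.5 h at 27.5 °C in ND96 pH 5.5 unless noted. For trans-stimulation, VF-6 injected in 25 nL ND96 at pH 5.0–7.0 or Na^+-free (choline) buffer; intracellular levels based on ~400 nL oocyte volume. Ten oocytes per treatment, ≥4 experiments.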
# PfCRT^Dd2 [6] = biological target: T3, PfCRT^Dd2; assay: cell-based; type: cell-based; details: for Uptake of [3H]CQ (% PfCRTDd2 control), trans-stimulation / PfCRT-mediated [3H]CQ transport, trans-stimulation (% PfCRTDd2 control): PfCRTDd2 oocytes; for Uptake of [3H]CQ (% PfCRTDd2 control), trans-stimulation: total [3H]CQ transport, normalised to the oocyte type control; for PfCRT-mediated [3H]CQ transport, trans-stimulation (% PfCRTDd2 control): normalised to oocyte type control; for [3H]CQ transport (% PfCRTDd2 control), trans-stimulation, PfCRTDd2: PfCRT-mediated component (background subtracted), mean ± SEM, SEM
# Outline: as §2
# PfNT1 = biological target: T4, PfNT1 (Plasmodium falciparum, UniProt Q8IDM6); assay: cell-based; type: cell-based; details: PfNT1 oocytes, total [3H]CQ transport, normalised to the oocyte type control
# T4 construct: expressed in transfected cells; host or cells: Xenopus laevis oocytes (stage V-VI), cRNA-injected
# Outline: as §2
# PfCRT^3D7 [7] = biological target: T1, PfCRT^3D7; assay: cell-based; type: cell-based; details: PfCRT3D7 oocytes; for Uptake of [3H]CQ (% PfCRT3D7 control), trans-stimulation: total [3H]CQ transport, normalised to the oocyte type control; for PfCRT-mediated [3H]CQ transport, trans-stimulation (% PfCRT3D7 control): normalised to oocyte type control
# Outline: as §2
# non-expressing oocytes [8] = type: cell-based, Xenopus laevis; details: non-expressing oocytes; [test solute]i = 45 mM (30 mM for some solutes due to solubility); total [3H]CQ transport, normalised to the oocyte type control
# Outline: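 Oocytes (ten per treatment, ≥4 independent frogs/days) were preloaded by injecting VF-6 in 25 nL ND96 at pH 5.0, 5.5, 6.0 or 7.0, or Na^+-free choline buffer, then uptake run 1.5 h, 27.5 °C, ND96 pH 5.5 by default. Internal concentrations assumed ~400 nL oocyte volume.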
# [9] = [test solute]i = 45 mM (30 mM for some solutes due to solubility)
# [10] = [test solute]i = 5 mM (intracellular)
# [11] = [test solute]i = 45 mM (intracellular; 30 mM for some solutes due to solubility)
# [12] = [test solute]i = 5 mM (injected)
# T3 sequence (Q9N623 whole entry A220S/I356T/K76T/M74I/N326S/N75E/Q271E/R371I): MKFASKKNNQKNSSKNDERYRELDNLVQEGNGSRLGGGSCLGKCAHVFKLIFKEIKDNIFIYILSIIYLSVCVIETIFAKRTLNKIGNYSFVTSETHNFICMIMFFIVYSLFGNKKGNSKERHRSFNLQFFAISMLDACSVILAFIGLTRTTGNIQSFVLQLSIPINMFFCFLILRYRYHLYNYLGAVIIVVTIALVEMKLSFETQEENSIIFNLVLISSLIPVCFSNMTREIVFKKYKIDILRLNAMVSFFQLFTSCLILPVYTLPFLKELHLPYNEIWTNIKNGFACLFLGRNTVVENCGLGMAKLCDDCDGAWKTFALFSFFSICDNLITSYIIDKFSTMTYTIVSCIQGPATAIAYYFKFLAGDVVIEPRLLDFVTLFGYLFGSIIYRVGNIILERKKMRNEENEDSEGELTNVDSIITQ
# T1 sequence (Q8IBZ9 59-398): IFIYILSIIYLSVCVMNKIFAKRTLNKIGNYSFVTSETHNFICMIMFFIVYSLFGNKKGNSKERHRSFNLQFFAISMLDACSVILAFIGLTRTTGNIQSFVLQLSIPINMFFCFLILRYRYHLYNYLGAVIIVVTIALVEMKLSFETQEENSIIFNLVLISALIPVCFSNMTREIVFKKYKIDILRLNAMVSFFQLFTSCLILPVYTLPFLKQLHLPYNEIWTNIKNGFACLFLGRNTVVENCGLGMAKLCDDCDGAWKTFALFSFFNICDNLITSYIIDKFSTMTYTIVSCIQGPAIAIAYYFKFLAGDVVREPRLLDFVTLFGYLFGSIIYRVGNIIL
# T2 sequence (Q9N623 whole entry A220S/I356L/K76T/N326D): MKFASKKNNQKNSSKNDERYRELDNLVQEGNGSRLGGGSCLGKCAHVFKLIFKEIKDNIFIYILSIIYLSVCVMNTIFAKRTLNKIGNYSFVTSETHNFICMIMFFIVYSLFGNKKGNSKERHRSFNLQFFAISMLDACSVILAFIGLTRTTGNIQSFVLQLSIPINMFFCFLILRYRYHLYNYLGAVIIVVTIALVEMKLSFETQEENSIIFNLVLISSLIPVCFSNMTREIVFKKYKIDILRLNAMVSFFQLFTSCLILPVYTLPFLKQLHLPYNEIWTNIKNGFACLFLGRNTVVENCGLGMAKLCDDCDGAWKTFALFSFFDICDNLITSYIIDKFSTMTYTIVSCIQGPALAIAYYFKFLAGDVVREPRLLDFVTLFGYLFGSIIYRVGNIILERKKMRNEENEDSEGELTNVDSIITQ
# T4 sequence (Q8IDM6 whole entry): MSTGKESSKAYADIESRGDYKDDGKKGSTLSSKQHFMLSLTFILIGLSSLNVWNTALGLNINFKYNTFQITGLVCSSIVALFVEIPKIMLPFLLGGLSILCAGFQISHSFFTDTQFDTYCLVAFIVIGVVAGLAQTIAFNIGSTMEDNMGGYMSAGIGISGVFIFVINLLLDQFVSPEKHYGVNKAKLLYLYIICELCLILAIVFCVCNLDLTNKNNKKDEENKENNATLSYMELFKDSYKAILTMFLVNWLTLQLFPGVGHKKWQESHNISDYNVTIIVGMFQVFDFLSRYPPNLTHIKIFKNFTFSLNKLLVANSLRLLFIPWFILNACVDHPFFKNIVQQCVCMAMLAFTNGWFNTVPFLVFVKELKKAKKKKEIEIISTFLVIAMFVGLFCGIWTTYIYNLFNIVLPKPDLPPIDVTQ
substance,measurement,setting,value
PVQA [PA-4],"Uptake of [3H]CQ (% non-expressing oocyte control), cis-inhibition",non-expressing oocytes [1]; [test solute] = 0.5 mM,98 ± 3.0 % non-expressing oocyte control
same,"Uptake of [3H]CQ (% non-expressing oocyte control), cis-inhibition",non-expressing oocytes [1]; [test solute] = 1 mM,100 ± 4.7 % non-expressing oocyte control
same,"Uptake of [3H]CQ (% non-expressing oocyte control), cis-inhibition",non-expressing oocytes [1]; [test solute] = 2 mM,98 ± 3.9 % non-expressing oocyte control
same,"Uptake of [3H]CQ (% PfCRT3D7 control), cis-inhibition",PfCRT^3D7 [2]; [test solute] = 0.5 mM,99 ± 5.3 % PfCRT3D7 control
same,"Uptake of [3H]CQ (% PfCRT3D7 control), cis-inhibition",PfCRT^3D7 [2]; [test solute] = 1 mM,99 ± 4.8 % PfCRT3D7 control
same,"Uptake of [3H]CQ (% PfCRT3D7 control), cis-inhibition",PfCRT^3D7 [2]; [test solute] = 2 mM,99 ± 5.7 % PfCRT3D7 control
same,"Uptake of [3H]CQ (% PfCRTEcu1110 control), cis-inhibition",PfCRT^Ecu1110 [3]; [test solute] = 0.5 mM,65 ± 2.9 % PfCRTEcu1110 control
same,"Uptake of [3H]CQ (% PfCRTEcu1110 control), cis-inhibition",PfCRT^Ecu1110 [3]; [test solute] = 1 mM,59 ± 3.6 % PfCRTEcu1110 control
same,"Uptake of [3H]CQ (% PfCRTEcu1110 control), cis-inhibition",PfCRT^Ecu1110 [3]; [test solute] = 2 mM,43 ± 2.5 % PfCRTEcu1110 control
same,"PfCRT-mediated [3H]CQ transport, cis-inhibition (% PfCRTEcu1110 control)",PfCRT^Ecu1110 [3]; [test solute] = 0.5 mM,61 ± 0.4 % PfCRTEcu1110 control
same,"PfCRT-mediated [3H]CQ transport, cis-inhibition (% PfCRTEcu1110 control)",PfCRT^Ecu1110 [3]; [test solute] = 1 mM,52 ± 2.6 % PfCRTEcu1110 control
same,"PfCRT-mediated [3H]CQ transport, cis-inhibition (% PfCRTEcu1110 control)",PfCRT^Ecu1110 [3]; [test solute] = 2 mM,39 ± 2.1 % PfCRTEcu1110 control
same,"[3H]CQ transport (% PfCRTEcu1110 control), cis-inhibition, PfCRTEcu1110",PfCRT^Ecu1110 [3]; [test solute] = 1 mM,16 ± 0.1 % PfCRTEcu1110 control
same,"[3H]CQ transport (% PfCRTEcu1110 control), cis-inhibition, PfCRTEcu1110",PfCRT^Ecu1110 [3]; [test solute] = 2 mM,12 ± 0.2 % PfCRTEcu1110 control
same,"PfCRT-mediated [3H]CQ transport, cis-inhibition (% PfCRTDd2 control)",PfCRT^Dd2 [4]; [test solute] = 0.5 mM,51 ± 3.0 % PfCRTDd2 control
same,"PfCRT-mediated [3H]CQ transport, cis-inhibition (% PfCRTDd2 control)",PfCRT^Dd2 [4]; [test solute] = 1 mM,41 ± 2.9 % PfCRTDd2 control
same,"PfCRT-mediated [3H]CQ transport, cis-inhibition (% PfCRTDd2 control)",PfCRT^Dd2 [4]; [test solute] = 2 mM,31 ± 1.2 % PfCRTDd2 control
same,"Uptake of [3H]CQ (% PfCRTEcu1110 control), trans-stimulation",PfCRT^Ecu1110 [5]; [test solute]i = 5 mM,122 ± 3.0 % PfCRTEcu1110 control
same,"Uptake of [3H]CQ (% PfCRTEcu1110 control), trans-stimulation",PfCRT^Ecu1110 [5]; [9],133 ± 3.5 % PfCRTEcu1110 control
same,"PfCRT-mediated [3H]CQ transport, trans-stimulation (% PfCRTEcu1110 control)",PfCRT^Ecu1110 [5]; [10],117 ± 2.4 % PfCRTEcu1110 control
same,"PfCRT-mediated [3H]CQ transport, trans-stimulation (% PfCRTEcu1110 control)",PfCRT^Ecu1110 [5]; [11],127 ± 1.9 % PfCRTEcu1110 control
same,"[3H]CQ transport (% PfCRTDd2 control), trans-stimulation, PfCRTEcu1110",PfCRT^Ecu1110 [5]; [12],35 ± 1.3 % PfCRTEcu1110 control
same,"[3H]CQ transport (% PfCRTDd2 control), trans-stimulation, PfCRTEcu1110",PfCRT^Ecu1110 [5]; [9],38 ± 1.1 % PfCRTEcu1110 control
same,"Uptake of [3H]CQ (% PfCRTDd2 control), trans-stimulation",PfCRT^Dd2 [6]; [test solute]i = 5 mM,98 ± 2.2 % PfCRTDd2 control
same,"Uptake of [3H]CQ (% PfCRTDd2 control), trans-stimulation",PfCRT^Dd2 [6]; [9],115 ± 1.1 % PfCRTDd2 control
same,"PfCRT-mediated [3H]CQ transport, trans-stimulation (% PfCRTDd2 control)",PfCRT^Dd2 [6]; [10],96 ± 3.2 % PfCRTDd2 control
same,"PfCRT-mediated [3H]CQ transport, trans-stimulation (% PfCRTDd2 control)",PfCRT^Dd2 [6]; [11],110 ± 0.9 % PfCRTDd2 control
same,"[3H]CQ transport (% PfCRTDd2 control), trans-stimulation, PfCRTDd2",PfCRT^Dd2 [6]; [12],96 ± 3.2 % PfCRTDd2 control
same,"[3H]CQ transport (% PfCRTDd2 control), trans-stimulation, PfCRTDd2",PfCRT^Dd2 [6]; [9],110 ± 0.9 % PfCRTDd2 control
same,"Uptake of [3H]CQ (% PfNT1 control), trans-stimulation",PfNT1; [test solute]i = 5 mM,96 ± 3.5 % PfNT1 control
same,"Uptake of [3H]CQ (% PfNT1 control), trans-stimulation",PfNT1; [9],98 ± 3.4 % PfNT1 control
same,"Uptake of [3H]CQ (% PfCRT3D7 control), trans-stimulation",PfCRT^3D7 [7]; [test solute]i = 5 mM,130 ± 4.2 % PfCRT3D7 control
same,"Uptake of [3H]CQ (% PfCRT3D7 control), trans-stimulation",PfCRT^3D7 [7]; [9],149 ± 5.8 % PfCRT3D7 control
same,"PfCRT-mediated [3H]CQ transport, trans-stimulation (% PfCRT3D7 control)",PfCRT^3D7 [7]; [10],124 ± 3.2 % PfCRT3D7 control
same,"PfCRT-mediated [3H]CQ transport, trans-stimulation (% PfCRT3D7 control)",PfCRT^3D7 [7]; [11],141 ± 4.0 % PfCRT3D7 control
same,"Uptake of [3H]CQ (% non-expressing oocyte control), trans-stimulation",non-expressing oocytes [8],100 ± 2.6 % non-expressing oocyte control
